Test results reported in article PMC5766630, “Non-estrogenic Xanthohumol Derivatives Mitigate Insulin Resistance and Cognitive Impairment in High-Fat Diet-induced Obese Mice” (Scientific Reports, 2018).

Legend:
C2C12 cells = test: Seahorse OCR and ECAR measurements (mitochondrial uncoupling); type: cell-based, mouse; conditions: for Increase of OCR in the presence of oligomycin (uncoupled respiration): 5 µM compound after 1 μM oligomycin, compared to the baseline, five independent experiments; for ECAR after addition of compound: 5 µM final concentration, after oligomycin 1 μM
Method: OCR and ECAR measurements were performed with a Seahorse XF 24 Analyzer (Agilent Technologies, Inc., Santa Clara, CA, USA). C2C12 cells were plated in culture medium at a density of 40,000 cells per well in a 24-well plate. The cells were then allowed to adhere for 24 h (37 °C, 5% CO2). Prior to the assay, the cells were washed with freshly prepared running medium consisting of Seahorse XF Assay medium (Agilent Technologies, Inc., Santa Clara, CA, USA), 10 mM glucose and 1 mM sodium pyruvate. The pH of the medium was adjusted to 7.4 with 1 M NaOH. The cells were then equilibrated for one hour at 37 °C without CO2. […] To overcome this problem, the test compounds were first dissolved in ethanol and the resulting solution was diluted 100-fold in treatment medium (9 parts XF media and 1 part 10% FBS media) which was added directly to cells. The treatment medium contained 1% FBS and after a further 10-fold dilution into the media in wells, only 0.1% FBS was present during OCR and ECAR measurements. The final concentrations in the wells were: 1 μM for oligomycin, and 5 μM for XN, DXN or TXN. The concentration of oligomycin and the cell density used were selected based on preliminary experiments. Ethanol was added to the control wells not to exceed a final concentration of 0.1% (vehicle control). OCR and ECAR were measured at 9-min intervals.
Seahorse data: to show a consistent baseline, OCR values (in pmol/min/mg protein) and ECAR values (in mpH/min/mg protein) for each value were divided, prior to statistical analysis, by the average of the four pre oligomycin treatment values (0, 8, 17, and 25 min) for the corresponding well and are shown as % pre oligomycin values. To account for repeated measures within wells over time, we utilized a repeated-measures-in-time design using ANOVA procedures in PROC MIXED (SAS). Fixed effects in the model were treatment (control, 5 μM XN, 5 μM DXN, and 5 μM TXN for the compound study), time (0, 8, 17, 25, 34, 43, 52, 60, 69, 78, 86, and 95 min), and their interaction. The random effect was the experiment (5 experiments for the compound study). To account for repeated measures within wells over time, a first order homogeneous variance-covariance matrix [AR(1)] was fitted for each well. Using the ESTIMATE statement, a priori contrasts were constructed by comparing the changes in compound treated cells from the last two time points prior to compound treatment (average 52 and 60 min) to the changes in control cells during the same time-period. This was carried out for each compound and dosage for 69, 78, 86, and 95 min separately and for all four time points combined. Results are shown in the text and the graphs as least squares means and their corresponding SEM (standard error of mean). […]

[1] = test system: progesterone receptor (PGR) expression in MCF-7 cells; test: Progesterone receptor (PGR) gene expression in MCF-7 cells, real-time PCR; type: cell-based, human; conditions: 20 h; estradiol 1 and 10 nM; 8-PN, XN, DXN, TXN 0.2, 1 and 5 μM; vs 0.1% ethanol
Method: MCF-7 cells (American Type Culture Collection, Manassas, VA, USA) were cultured in DMEM (Corning Life Sciences, Tewksbury, MA, USA) supplemented with 10% fetal bovine serum (Corning Life Sciences) and 100 μg/ml penicillin/streptomycin (Invitrogen, Carlsbad, CA, USA). For estrogen-free experiments, cells were seeded in phenol-free DMEM (Gibco/Life Technologies, Grand Island, NY, USA) plus 10% charcoal-dextran-treated FBS (Corning Life Sciences) at 5 × 10^5 cells/well of a 6-well plate. […] Total RNA was isolated using TRIzol (Invitrogen) and converted into cDNA using iScript (Bio-Rad, Hercules, CA, USA). Real-time PCR was performed in triplicate on a CFX-96 (Bio-Rad) using primer-probe assays (IDT Technologies, Coralville, IA, USA) and SsoAdvanced Universal Probes Supermix (Bio-Rad) to quantify progesterone receptor (PGR) and GAPDH levels. The ratio of PGR to GAPDH was calculated as 2^−ΔCt PGR/2^−ΔCt GAPDH. Data were analyzed using a one-way ANOVA (p < 0.05 was considered statistically significant) and a post-hoc Tukey’s multiple comparison test. Induction of the progesterone receptor in MCF-7 cells is one of the indices of estrogenicity of flavonoids such as 8-PN[94].

[2] = test system: liver AMPK (pAMPKα/total AMPKα); test: AMPK activation in liver by Western blot; type: in vivo, mouse; conditions: HFD mice, 30 mg/kg/day, 13 weeks, vs control
Method: Approximately 150 mg of frozen liver and muscle tissues were homogenized in tubes containing RIPA buffer with protease and phosphatase inhibitors plus ceramic beads (1.4 mm Ceramic, Bulk Beads, Fisher Scientific, Pittsburgh, PA, USA) using a Precellys 24 (PEQLAB Biotechnology GmbH, Germany). Liver tissue was homogenized for 1 × 30 sec at 6,500 rpm whereas muscle was homogenized for 3 × 30 sec at 6,500 rpm with 20 sec intervals. The homogenates were centrifuged at 15,700 × g for 10 minutes and aliquots (50 µg of protein) of the supernatant (lysate) were separated by SDS-PAGE using 4–15% MP TGX Gels (Bio-Rad # 4561083) and blotted onto nitrocellulose membranes. Membranes were blocked with 5% nonfat milk for 2 h and incubated with antibodies against pAMPK (Phospho-AMPKα (Thr172) Antibody, cat. no. #2531 Cell Signaling Technology, Danvers, MA, USA), AMPK (AMPKα Antibody, cat. no. #2532 Cell Signaling Technology, Danvers, MA, USA), or β-actin (Santa Cruz Biotechnology) for 1 h or overnight. After a second reaction with secondary antibodies (horseradish peroxidase-conjugated IgG goat antirabbit or goat antimouse antibodies), the protein bands on the nitrocellulose membranes were visualized by enhanced chemiluminescence substrate on a Biorad ChemiDocTM MP Imaging System (BioRad Laboratories Inc, Hercules, CA, USA). Band intensities were quantified by densitometry using Image J software.

SMILES	Increase of OCR in the presence of oligomycin (uncoupled respiration) (C2C12 cells)	ECAR after addition of compound (C2C12 cells)	induction of PGR expression [1]	Increase of liver AMPK activation (phosphorylated AMPKα/total AMPKα) [2]
COc1cc(O)c(CC=C(C)C)c(O)c1C(=O)CCc1ccc(O)cc1 [DXN, α,β-Dihydroxanthohumol]	28.7 ± 6.9%	significant decrease	do not induce	did not cause a significant activation
COc1cc(O)c(CCC(C)C)c(O)c1C(=O)CCc1ccc(O)cc1 [TXN, tetrahydroxanthohumol]	56.8 ± 6.9%	significant decrease	do not induce	did not cause a significant activation
COc1cc(O)c(CC=C(C)C)c(O)c1C(=O)/C=C/c1ccc(O)cc1 [XN, 3′-[3,3-dimethylallyl]-2′,4′,4-trihydroxy-6′-methoxychalcone]	–	significant decrease	do not induce	24%
